From US10369159B2, “Estrogen receptor β partial agonist having estrogen receptor α inhibitory effect, and gynecological disease therapeutic agent using same” (NOBELPHARMA CO., LTD., priority 2015, dated 2019)

What was measured:
rat endometriosis model = assay: Wet weight of each organ (pituitary, adrenal glands, left uterine horn, femur) in the rat endometriosis model; format: in vivo; details: for Wet weight of pituitary: vehicle 0.0271 g; for Wet weight of adrenal gland (right): vehicle 0.0425 g; for Wet weight of adrenal gland (left): vehicle 0.0468 g; for Wet weight of adrenal glands (the sum of the left and right): vehicle 0.0893 g; for Wet weight of left uterine horn: vehicle 0.1428 g; for Wet weight of femur (left): vehicle 0.7589 g
Experimental: On the previous day of the model preparation (the grouping date), under inhalation anesthesia of 2% isoflurane, an incision was made in the abdomen of the rats. Subsequently, about 5 mL of blood was collected with a syringe from the abdominal vena cava and collected in a Venoject II vacuum blood collection tube (EDTA-2K), then cut the abdominal vena cava and abdominal aorta to euthanize by exsanguination. The right uterine horn was excised and cut out two strips (approximately 5 mm×5 mm), then cut out strips (approximately 5 mm×5 mm) from the graft sites, the right and left abdominal walls (muscle layer and peritoneum). After that, wet weight of each strip and abdominal wall was measured. Then pituitary, adrenal glands (both sides), left uterine horn, mammary gland (excised with the nipples, three on the lower abdomen, a sample for RNA measurement was approximately 3 mm in diameter) and femur (left side) were excised.
As for the pituitary, adrenal glands (both sides), left uterine horn and femur, wet weight was measured. The femur bone after wet weight measurement was discarded.
The administration was made orally, and the drug was forcibly administered into a stomach once a day using a flexible oral sonde and syringe for 28 consecutive days.
On the next day of the final administration, the abdominal dissection was made under inhalation anesthesia of 2% isoflurane, and the grafted uterine strips (two pieces) were excised, and photographed with a digital camera. Subsequently, about 5 mL of blood was collected with a syringe from the abdominal vena cava and collected in a Venoject II vacuum blood collection tube (EDTA-2K), then cut the abdominal vena cava and abdominal aorta to euthanize by exsanguination. Then pituitary, adrenal glands (both sides), graft uterine strips (two pieces), left uterine horn, mammary gland (excised with the nipples, three on the lower abdomen, a sample for RNA measurement was approximately 3 mm in diameter) and femur (left side) were excised.
As for the pituitary, adrenal glands (both sides), grafted uterine strip (one piece), left uterine horn and femur, wet weight was measured. The femur bone after wet weight measurement was discarded.

Era = assay: Gene expression analysis of endometrial implants (TaqMan), Era; format: in vivo, rat; details: for Expression level Era: endometrial implants, corrected by GAPDH, n 6, E2 control 44.2 ± 18.9
Experimental: (§1) Total RNA was extracted […] the rat-derived endometrial graft (27 specimens), then quality of the RNA was inspected with a spectrophotometer and bio-analyzer, and then reverse transcription reaction of the RNA was performed, followed by gene expression analysis was performed according to TaqMan method.
(§2) RNA was extracted from the rat uterine horn strips and grafted uterine strip using the RNeasy Fibrous Tissue Mini Kit.
(§3) Concentration of the extracted RNA was measured with a NanaoDrop. Also RIN measurements using a bioanalyzer (6000 nano kits) was carried out. A 6000 pico-kit was used for bioanalyzing of the two samples with low yield (Sample ID: 202, 507).
(§4) cDNA obtained by reverse transcription reaction from 1000 ng/uL of commercially available Rat Tissue Universal Reference Total RNA (Catalog Number PR-UR-100, ZYAGEN Inc.) using SuperScript VILO Master Mix (hereinafter “Standard”) was used as a standard substance.
(§5) Based on the concentration measured with a spectrophotometer, reverse transcription reaction of the specimen with Super Script VILO Master Mix was performed to give 50 ng/uL of cDNA (the following example). As for the samples with low yield, that is Sample ID: 202, 502, 507, the reverse transcription reaction was performed to give 25 ng/uL, 25 ng/uL, and 12.5 ng/uL of cDNA, respectively.
(§6) TaqMan reaction by using Step One Plus Real-Time PCR System was performed with standard 250, 62.5, 15.625, 3.9, 0.98 ng/well or sample 5.0 ng/well. A cycle of reaction, two minutes at 50° C. and 10 minutes at 95° C., followed by 15 seconds at 95° C. and one minute at 60° C., was repeated 40 cycles, then the fluorescence value FAM was measured in real time after the reaction at 60° C. In addition to the target eight genes, GAPDH gene as an internal control gene was measured. All the standards and samples were measured in triplicate.
(§7) From each of the two calibration curves (target gene, GAPDH gene) obtained from the standard, gene expressions level of the target gene and GAPDH gene of the sample was calculated, respectively. Then, the target gene expression level was corrected by the GAPDH gene expression level, the internal control gene. And then, an average gene expression level of the samples in each group was calculated, followed by the average gene expression level of the two groups was used as a standard to compare with each of the other groups.

Erb = assay: Gene expression analysis of endometrial implants (TaqMan), Erb; format: in vivo, rat; details: for Expression level Erb: endometrial implants, corrected by GAPDH, n 6, E2 control 2.37 ± 1.07
Experimental: as §1, §2, §3, §4, §5, §6, §7

PR = assay: Gene expression analysis of endometrial implants (TaqMan), PR; format: in vivo, rat; details: for Expression level PR: endometrial implants, corrected by GAPDH, n 6, E2 control 101.0 ± 40.3
Experimental: as §1, §2, §3, §4, §5, §6, §7

VEGF = assay: Gene expression analysis of endometrial implants (TaqMan), VEGF; format: in vivo, rat; details: for Expression level VEGF: endometrial implants, corrected by GAPDH, n 6, E2 control 1.62 ± 0.43
Experimental: as §1, §2, §3, §4, §5, §6, §7

IL-6 = assay: Gene expression analysis of endometrial implants (TaqMan), IL-6; format: in vivo, rat; details: for Expression level IL-6: endometrial implants, corrected by GAPDH, n 6, E2 control 14.24 ± 8.74
Experimental: as §1, §2, §3, §4
(§8) Based on the concentration measured with a spectrophotometer, reverse transcription reaction of the specimen with Super Script VILO Master Mix was performed to give 50 ng/uL of cDNA (the following example). […]
as §6
as §7, with “Then, the target gene expression level was corrected by the GAPDH gene expression level, the internal control gene.” left out

PEDF = assay: Gene expression analysis of endometrial implants (TaqMan), PEDF; format: in vivo, rat; details: for Expression level PEDF: endometrial implants, corrected by GAPDH, n 6, E2 control 4.51 ± 1.39
Experimental: as §1, §2, §3, §4, §8, §6
as §7, with “Then, the target gene expression level was corrected by the GAPDH gene expression level, the internal control gene.” left out

[1] = in comparison with the E2 control group

CCN(CC)Cc1ccc(OCC[C@H]2CC[C@H]3[C@@H]4[C@H](C)Cc5cc(O)ccc5[C@H]4CC[C@]23C)c(OC)c1 [SR16234, (7α)-21-[4-[(diethylamino)methyl]-2-methoxyphenoxy]-7-methyl-19-norpregna-1,3,5(10)-triene-3-ol]
Wet weight of pituitary (rat endometriosis model; 0.1 mg/kg p.o. 28 days): 0.0226 g | Wet weight of adrenal gland (right) (rat endometriosis model; 0.1 mg/kg p.o. 28 days): 0.0400 g | Wet weight of adrenal gland (left) (rat endometriosis model; 0.1 mg/kg p.o. 28 days): 0.0438 g | Wet weight of adrenal glands (the sum of the left and right) (rat endometriosis model; 0.1 mg/kg p.o. 28 days): 0.0838 g | Wet weight of left uterine horn (rat endometriosis model; 0.1 mg/kg p.o. 28 days): 0.1261 g | Wet weight of femur (left) (rat endometriosis model; 0.1 mg/kg p.o. 28 days): 0.7597 g | Weight trend in comparison with the vehicle control group after the Day 14 (in words) (rat endometriosis model; 0.3 mg/kg and 0.1 mg/kg administered group): very mild weight suppression trend | Wet weight of pituitary (rat endometriosis model; 0.3 mg/kg p.o. 28 days): 0.0187 g | Wet weight of adrenal gland (right) (rat endometriosis model; 0.3 mg/kg p.o. 28 days): 0.0381 g | Wet weight of adrenal gland (left) (rat endometriosis model; 0.3 mg/kg p.o. 28 days): 0.0398 g | Wet weight of adrenal glands (the sum of the left and right) (rat endometriosis model; 0.3 mg/kg p.o. 28 days): 0.0779 g | Wet weight of left uterine horn (rat endometriosis model; 0.3 mg/kg p.o. 28 days): 0.1119 g | Wet weight of femur (left) (rat endometriosis model; 0.3 mg/kg p.o. 28 days): 0.7598 g | Wet weight of pituitary (rat endometriosis model; 1.0 mg/kg p.o. 28 days): 0.0174 g | Wet weight of adrenal gland (right) (rat endometriosis model; 1.0 mg/kg p.o. 28 days): 0.0357 g | Wet weight of adrenal gland (left) (rat endometriosis model; 1.0 mg/kg p.o. 28 days): 0.0375 g | Wet weight of adrenal glands (the sum of the left and right) (rat endometriosis model; 1.0 mg/kg p.o. 28 days): 0.0732 g | Wet weight of left uterine horn (rat endometriosis model; 1.0 mg/kg p.o. 28 days): 0.1016 g | Wet weight of femur (left) (rat endometriosis model; 1.0 mg/kg p.o. 28 days): 0.7301 g | Wet weight of organs in comparison with the vehicle control group (in words) (rat endometriosis model; SR16234 administered groups, 0.1, 0.3 and 1.0 mg/kg): decreasing trend associated with the dose increase | Expression level Era (Era; 0.1 mg/kg): 39.3 ± 14.3 ng | Expression level Era (Era; 0.3 mg/kg): 47.6 ± 14.9 ng | Expression level Era (Era; 1 mg/kg): 33.2 ± 20.7 ng | Effect on the estrogen receptor gene expression of Era (in words) (Era; [1]): not observed | Expression level Erb (Erb; 0.1 mg/kg): 4.05 ± 1.88 ng | Expression level Erb (Erb; 0.3 mg/kg): 3.05 ± 1.02 ng | Expression level Erb (Erb; 1 mg/kg): 2.08 ± 1.51 ng | Effect on the estrogen receptor gene expression of Erb (in words) (Erb; [1]): not observed | Expression level PR (PR; 0.1 mg/kg): 94.6 ± 37.7 ng | Expression level PR (PR; 0.3 mg/kg): 176.2 ± 81.1 ng | Expression level PR (PR; 1 mg/kg): 127.8 ± 89.1 ng | Effect on gene expression of PR (in words) (PR; [1]): slight increase trend | Expression level VEGF (VEGF; 0.1 mg/kg): 1.44 ± 0.43 ng | Expression level VEGF (VEGF; 0.3 mg/kg): 1.65 ± 0.40 ng | Expression level VEGF (VEGF; 1 mg/kg): 1.33 ± 0.57 ng | Effect on the gene expression of VEGF (in words) (VEGF; [1]): No effect | Expression level IL-6 (IL-6; 0.1 mg/kg): 9.77 ± 9.78 ng | Expression level IL-6 (IL-6; 1 mg/kg): 6.74 ± 4.96 ng | Effect on the gene expression of IL-6 (in words) (IL-6; in comparison with the E2 control group, FIG. 3): dose-dependently inhibited | Expression level PEDF (PEDF; 0.1 mg/kg): 6.44 ± 1.56 ng | Expression level PEDF (PEDF; 1 mg/kg): 5.93 ± 3.01 ng | Effect on the gene expression of PEDF (in words) (PEDF; in comparison with the E2 control group, FIG. 2): increase trend
